From ChEMBL document CHEMBL1144819, “Antitumor agents. 261. 20(S)-protopanaxadiol and 20(s)-protopanaxatriol as antiangiogenic agents and total assignment of (1)H NMR spectra” (J Nat Prod, 2008)
≈ marks a conversion by molar mass, not a printed value.

Legend:
[1] = test system: HUVEC; test: Cell viability of HUVEC cells at 20 ug/ml; type: functional, Homo sapiens
[2] = test system: HUVEC; test: Antiproliferative activity against HUVEC cells after 72 hrs; type: functional, cell-based; settings: Homo sapiens

| Compound | Activity [1] [%] | EC50 [2] [µg/mL] |
| --- | --- | --- |
| CC(C)=CCC[C@](C)(O)[C@H]1CC[C@]2(C)[C@@H]1[C@H](O)C[C@@H]1[C@@]3(C)CC[C@H](O)C(C)(C)[C@@H]3[C@@H](O)C[C@]12C | 16.5 | 6.64 (≈ 13.9 µM) |
| CC(C)=CCC[C@](C)(O)[C@H]1CC[C@]2(C)[C@@H]1[C@H](O)C[C@@H]1[C@@]3(C)CC[C@H](O)C(C)(C)[C@@H]3CC[C@]12C | 16.5 | 2.16 (≈ 4.69 µM) |
